Data on six molecules can be found in paper PMC6029275, “Cytotoxic properties of the anthraquinone derivatives isolated from the roots of Rubia philippinensis” (BMC Complementary and Alternative Medicine, 2018).

Structures are written as SMILES.

Holding throughout (type): cell-based
Experiment [1] deals with SK-MEL-5 (human melanoma). Nature of the experiment: MTT cytotoxicity assay, SK-MEL-5. The note with it: for IC50: MTT, 24 h treatment, mean ± SD; for Selectivity index SK-MEL-5 (column head IC50 (μM)): ratio of IC50 on MDCK cells to IC50 in SK-MEL-5. As for the experimental part:
(§1) The potential cytotoxicity of the isolated anthraquinone derivatives was studied against various cancer cell lines, including SK-MEL-5 (human melanoma), B16F10 (murine melanoma) MCF7 (human breast adenocarcinoma), and MDA-MB-231 (human breast adenocarcinoma) and the normal cell line MDCK (normal kidney epithelial) using the MTT assay. All cell lines were cultured in DMEM medium supplemented with 10% foetal bovine serum (FBS) and streptomycin–penicillin (100 μg/ml each; Hyclone) in a 5% CO2 humidified incubator. An MTT assay was employed to determine the percentage of the viability of various cancer cells as well as MDCK cells. All cells were first cultured in 96-well plates (1 × 10^5 cells/mL for all cancerous cells and 5 × 10^5 cells/mL for MDCK cells) for 24 h, and treated with indicated concentration of isolated compounds (6.25–100 μM for cancerous cells and 6.25–400 μM for MDCK cells). Various dilutions of stock culture were made in the culture medium to get the final concentration of the sample with a 0.1% of DMSO concentration, including the control. After 24 h incubation, MTT reagent was added to each well and the plate was incubated at 37 °C for 1 h. After removing the medium, the plate was washed twice with PBS (pH 7.4). The intracellular insoluble formazan was dissolved in 100% DMSO. A microplate reader was used to measure the absorbance of each cell line at 570 nm, and the percentage of cell viability was calculated. The absorbance value for the average of wells of cells treated with each test sample concentration was expressed as a percentage of this control and the IC50 values for each sample on each cell line were calculated. The anti-cancer drug oxaloplatin was used as a positive control.
On the technique in general: Tetrazolium dyes change colour on reduction, which living cells bring about.

The next experiment relates to B16F10 (murine melanoma). Nature of the experiment: MTT cytotoxicity assay, B16F10. The note with it: for IC50: MTT, 24 h treatment, mean ± SD; for Selectivity index B16F10 (column head IC50 (μM)): ratio of IC50 on MDCK cells to IC50 in B16F10. As to the method: as §1
In experiment [2] the test system is MCF7 (human breast adenocarcinoma). Nature of the experiment: MTT cytotoxicity assay, MCF7. The note with it: for IC50: MTT, 24 h treatment, mean ± SD; for Selectivity index MCF7 (column head IC50 (μM)): ratio of IC50 on MDCK cells to IC50 in MCF7. As for the experimental part: as §1
The subject of experiment [3] is MDCK (normal kidney epithelial cells). Nature of the experiment: MTT cytotoxicity assay, normal cell line MDCK. The note with it: 24 h treatment, mean ± SD. As to the method:
as §1

The test system of experiment [4] is MDA-MB-231 (human breast adenocarcinoma). The experiment is described as follows: MTT cytotoxicity assay, MDA-MB-231. The following applies: for IC50: MTT, 24 h treatment, mean ± SD; for Selectivity index MDA-MB-231: ratio of IC50 on MDCK cells to IC50 in MDA-MB-231. As for the experimental part:
as §1

Take `Cc1c(O)cc2c(c1O)C(=O)c1ccc(O)cc1C2=O` [Compound 2, 2-methyl-1,3,6-trihydroxy-9,10-anthraquinone]: the IC50 came out at 46.8 ± 1.39 µM in experiment [1] (Homo sapiens, SK-MEL-5); 77.88 ± 0.34 µM with B16F10 (murine melanoma) (Mus musculus, B16-F10); 80 ± 1.14 µM in experiment [2] (Homo sapiens, MCF7); 168.8 ± 0.61 µM in experiment [3] (Canis lupus familiaris, MDCK); 59.22 ± 0.4 µM in experiment [4] (Homo sapiens, MDA-MB-231). Moreover, the “Selectivity index SK-MEL-5 (column head IC50 (μM))” value in experiment [1] is listed as 3.61. In addition, the “Selectivity index B16F10 (column head IC50 (μM))” value (“Selectivity index B16F10” below) in the experiment on B16F10 (murine melanoma) is reported as 2.17. Moreover, the “Selectivity index MCF7 (column head IC50 (μM))” value (“Selectivity index MCF7” below) in experiment [2] is recorded as 2.11. In addition, in experiment [4], the “Selectivity index MDA-MB-231” value is recorded as 2.85.
For the molecule `COCc1c(O)cc2c(c1O)C(=O)c1ccccc1C2=O` [Compound 5, lucidin-ω-methyl ether], the IC50 in experiment [1] (Homo sapiens, SK-MEL-5) is 42.8 ± 1.32 µM; with B16F10 (murine melanoma) (Mus musculus, B16-F10), 29.5 ± 2.61 µM; in experiment [2] (Homo sapiens, MCF7) it was 24.1 ± 1.06 µM; in experiment [3] (Canis lupus familiaris, MDCK) it was 79.01 ± 0.03 µM; in experiment [4] (Homo sapiens, MDA-MB-231), 13 ± 0.33 µM. The “Selectivity index SK-MEL-5 (column head IC50 (μM))” value in experiment [1] was found to be 1.85. The “Selectivity index B16F10” value in the experiment on B16F10 (murine melanoma) stood at 2.68. Besides, the “Selectivity index MCF7” value in experiment [2] is listed as 3.28. Besides, in experiment [4], the “Selectivity index MDA-MB-231” value was 6.06.
For `O=C1c2ccccc2C(=O)c2c(O)cc(O)cc21` [Compound 4, xanthopurpurin], the IC50 in experiment [1] (Homo sapiens, SK-MEL-5) is 21.4 ± 0.99 µM; in the experiment with B16F10 (murine melanoma) (Mus musculus, B16-F10) it was 23.7 ± 1.71 µM; in experiment [2] (Homo sapiens, MCF7), 15.8 ± 1 µM; in experiment [3] (Canis lupus familiaris, MDCK), 67.9 ± 1.02 µM; in experiment [4] (Homo sapiens, MDA-MB-231), 14.7 ± 1.45 µM.
On to `O=C1c2ccccc2C(=O)c2c1ccc(O)c2O` [Compound 3, alizarin], for which the IC50 is 53.08 ± 0.3 µM in experiment [1] (Homo sapiens, SK-MEL-5); 98.8 ± 2.1 µM with B16F10 (murine melanoma) (Mus musculus, B16-F10); 49.2 ± 0.85 µM in experiment [2] (Homo sapiens, MCF7); 199.3 ± 1.88 µM in experiment [3] (Canis lupus familiaris, MDCK); 48.64 ± 0.33 µM in experiment [4] (Homo sapiens, MDA-MB-231).
For the molecule `CC(=O)OC[C@H]1O[C@@H](Oc2cc3c(c(O)c2C)C(=O)c2ccc(O)cc2C3=O)[C@H](O[C@H]2O[C@@H](C)[C@H](O)[C@@H](O)[C@H]2O)[C@@H](O)[C@@H]1O` [Compound 1, 2-methyl-1,3,6-trihydroxy-9,10-anthraquinone-3-O-(6′-O-acetyl)-α-rhamnosyl(1 → 2)-β-glucoside], the IC50 in experiment [1] (Homo sapiens, SK-MEL-5) is 91 ± 1.88 µM; with B16F10 (murine melanoma) (Mus musculus, B16-F10), 48.68 ± 0.1 µM; in experiment [2] (Homo sapiens, MCF7) it was 65.5 ± 1.1 µM; in experiment [3] (Canis lupus familiaris, MDCK) it was 192.3 ± 0.49 µM; in experiment [4] (Homo sapiens, MDA-MB-231), 49.4 ± 0.78 µM. The “Selectivity index SK-MEL-5 (column head IC50 (μM))” value in experiment [1] is reported as 2.11. Also, the “Selectivity index B16F10” value with B16F10 (murine melanoma) is on record as 3.95. Also, in experiment [2], the “Selectivity index MCF7” value amounted to 2.94. Moreover, the “Selectivity index MDA-MB-231” value in experiment [4] was determined as 3.89.
For `O=C1[O][Pt]2([NH][C@@H]3CCCC[C@H]3[NH]2)[O]C1=O` [Oxaloplatin, oxaloplatin, reference compound], the concentration for half-maximal inhibition (IC50) in experiment [1] stood at 14.2 ± 1.02 µM; with B16F10 (murine melanoma), 10.5 ± 0.92 µM; in experiment [2] it was 8.59 ± 1.22 µM; in experiment [3], 24 ± 1.04 µM; in experiment [4], 7.95 ± 1.92 µM.

A word on the IC50: it is the concentration that gives 50% inhibition. Lower therefore signals greater potency in that assay.
